Laboratory results reported in patent US9351818B2, “Process for the synchronization of ovulation for timed breeding without heat detection” (priority 2003, dated 2016).

Assays:
[1] = test system: postpartum sows; test: Single timed deslorelin injection 96 hours post-weaning with single timed insemination, no estrus detection (Example 3); assay type: in vivo, swine; details: 50 mcg in SAIB at 96 hours post-weaning; single insemination 28+/-2 hours later
Description: Approximately 170 postpartum sows were randomly divided into two equal groups comprised of controls and treated. Following weaning, the controls were detected for estrus and bred following the normal standard operating procedures for the farms on which they resided. The treated sows received a 50 mcg dose of deslorelin in SAIB at 96 hours post-weaning and were bred with a single insemination 28+/−2 hours later with no regard to estrus detection. The sows were examined for pregnancy by ultrasound at 21 days and slaughtered around 28 days post breeding. The entire reproductive tract was removed and corpora lutea and embryos were counted.

[2] = test system: mature postpartum sows; test: Intravulvar deslorelin at estrus detection with AI in mature postpartum sows (Example 2); assay type: in vivo, swine; details: 50 μg deslorelin acetate intravulvar at first estrus detection, then AI again if in estrus the next day
Description: Sows were assigned randomly in blocks of two to either control or to be injected intravulvar with 50 mcg of deslorelin in SAIB at the time of estrus detection for sows first detected in estrus in the a.m. and 12 hours later for those first detected in estrus in the p.m. Treated animals were bred AI upon detected estrus and again 24 hours later if still in estrus. Controls received a saline injection on first detected estrus behavior estrus detection and were bred according to the farm's normal procedures.

CCNC(=O)[C@@H]1CCCN1C(=O)[C@H](CCCN=C(N)N)NC(=O)[C@H](CC(C)C)NC(=O)[C@@H](Cc1c[nH]c2ccccc12)NC(=O)[C@H](Cc1ccc(O)cc1)NC(=O)[C@H](CO)NC(=O)[C@H](Cc1c[nH]c2ccccc12)NC(=O)[C@H](Cc1cnc[nH]1)NC(=O)[C@@H]1CCC(=O)N1 [Deslorelin, deslorelin]
Embryo Survival [1]: 64%
Pregnancy Rate [2]: 91%
